Drawing on PubChem BioAssay (NCI), this text covers GI50 and TGI for 15 molecules.

What all share (experiment): growth of human tumour cells (NCI), 48 h
Test [1] relates to MOLT-4 leukemia.
Test [2] concerns NCI-H460 lung.
Test [3] concerns NCI-H23 lung.
For test [4], the system named is MCF7 breast.
Test [5] relates to IGROV1 ovarian.
Test [6] concerns OVCAR-4 ovarian.
Test [7] relates to EKVX NSCLC.
Test [8] has as its system SK-MEL-28 melanoma.
Test [9] deals with 786-0 renal.

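Briefly, cells in 96-well plates were exposed to five compound concentrations for 48 h, and endpoints were estimated by linear interpolation. Here, GI50 denotes the concentration required for 50% inhibition of growth. TGI marks complete inhibition of growth.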

Consider `CCN(C(=O)CN1CCN(c2cc3c(cc2F)c(=O)c(C(=O)O)cn3CC)CC1)c1nc(-c2ccccc2)cs1`, for which the GI50 in test [1] was 0.376 µM; in test [2], 0.394 µM; in [3], 0.315 µM; in test [4], 0.295 µM; in test [5], 0.419 µM; in [6], 0.347 µM. Besides, the GI50 in test [7] is 0.372 µM; in test [8], 0.59 µM; in test [9], 0.384 µM. The TGI in test [1], in test [2], in test [3], in [4], in test [5] and in test [6] was more than 100 µM throughout. In addition, the TGI in [7], in [8] and in test [9] was more than 100 µM throughout.
Take `COCCOCOC(C)(C)[C@H](CCOC(C)=O)O[Si](c1ccccc1)(c1ccccc1)C(C)(C)C`: the TGI in test [1] is 19.1 µM; in test [2] it was 24.1 µM; in [3], 80 µM; in [5], more than 100 µM; in test [6], more than 100 µM; in test [7], more than 100 µM. The TGI was more than 100 µM in test [8] and 58.9 µM in test [9].
Turning to `NC(=O)C12CC3CC(CC(Br)(C3)C1)C2`, the TGI in [1], in test [2], in test [3], in test [5], in test [6] and in test [7] was more than 100 µM in each case. In addition, the TGI in test [8] and in [9] was more than 100 µM throughout.
With `O=C(N/C(=C\c1cc(Cl)ccc1Cl)c1nc2ccc(Cl)cc2[nH]1)c1ccccc1`, the TGI in test [1] stood at 37.2 µM; in test [2] it was 30.5 µM; in test [3], 28.7 µM; in test [5], 29.8 µM; in test [6], 68.6 µM; in test [7], 50.6 µM. The TGI in [8] was 32.4 µM; in [9], 71.9 µM.
Take `COC/N=C(/N)NC#N`: the TGI in test [1], in test [2], in [3], in test [5], in [6] and in [7] was more than 100 µM throughout. The TGI in test [8] and in test [9] was more than 100 µM in each case.
For the molecule `C/C(=C\Cc1cc(O)ccc1O)CCc1c(C)c(O)c(O)c(C=O)c1C`, the TGI in test [1] was more than 100 µM; in [2], 53.3 µM; in [3], 44.7 µM; in test [5], 41.3 µM; in test [6], more than 100 µM; in test [7], more than 100 µM. Besides, the TGI in test [8] amounted to 48.5 µM; in test [9], 62.2 µM.
On to `COc1ccc(Cc2nc3ccccc3s2)cc1OC`, for which the TGI in [1] stood at 63.9 µM; in test [2], 38.3 µM; in [3] it was 40.4 µM; in [5], 35.7 µM; in test [6] it was 37.7 µM; in [7], 37.1 µM. The TGI in test [8] and in test [9] was 31.9 µM in each case.
As to `COc1cc(/C=C\c2ccncc2)cc(OC)c1OC`, the TGI in [1], in test [2], in test [5], in [6], in [7] and in test [8] was more than 100 µM each time. This molecule gave a TGI in test [9] of more than 100 µM.
Consider `COC(=O)/C(C#N)=C1\CCc2ccccc21`, for which the TGI in test [1], in [2], in test [3], in test [5], in test [6] and in test [7] was more than 100 µM in each case. Besides, the TGI in test [8] and in test [9] was more than 100 µM each time.
In the case of `Cc1cc(C)nc(NS(=O)(=O)c2ccc(NC(=O)c3cccn4c(=O)c5ccccc5nc34)cc2)n1`, the TGI in test [1] is more than 100 µM; in test [2] it was more than 100 µM; in test [3], more than 100 µM; in [5], more than 100 µM; in [6], 68.3 µM; in test [7], 99.7 µM. Moreover, the TGI in [8] and in [9] was more than 100 µM in each case.
Consider `COC(=O)C#CCC1CCCC1C1SCCS1` (configuration not stated), for which the TGI in [1] was 75.6 µM; in test [3] it was more than 100 µM; in test [5], more than 100 µM; in test [6], more than 100 µM; in test [7], more than 100 µM; in [8], more than 100 µM. In [9], this molecule gave a TGI of more than 100 µM.
Regarding `N.N.N.N.N.O=S(=O)([O-])C(F)(F)F.O=S(=O)([O-])C(F)(F)F.[Os+8]`, the GI50 in test [1] was 0.876 µM; in test [2], 5.21 µM; in [3], 5.07 µM; in [5], 21.3 µM; in test [7], 43.6 µM; in test [8], 10.8 µM. In addition, the GI50 in [9] is 4.2 µM. The TGI in [1] was 14.7 µM; in test [2], more than 100 µM; in test [3], 19.1 µM; in test [5], 64.1 µM; in test [7] it was more than 100 µM; in test [8], 30.2 µM. In addition, in test [9], the TGI was found to be 16.4 µM.
As to `CCN(CC)CCCC(C)Nc1c(Sc2cnc3cc(Cl)ccc3c2NC(C)CCCN(CC)CC)cnc2cc(Cl)ccc12` (configuration not stated), the TGI stood at 4.57 µM in [1]; 3.23 µM in test [2]; 9.25 µM in test [3]; 3.51 µM in [5]; 3.22 µM in test [6]; 3.34 µM in test [8]. In addition, in [9], the TGI came out at 3.01 µM.
As to `CC1=NN(C(=O)c2ccc(Cl)cc2)C(=O)/C1=C/c1ccc(Cl)cc1`, the TGI in test [1], in [2], in test [3], in test [5], in test [6] and in test [7] was more than 100 µM in each case. For the same molecule, the TGI in [8] and in test [9] was more than 100 µM in each case.
`CCCCc1c2c(nc3c1CCc1cc4cc5c(nc4nc1-3)-c1nc3c(c(CCCC)c1CC5)CCC/C3=C\c1ccccc1)/C(=C/c1ccccc1)CCC2`: the TGI in test [1], in [2], in [3], in [5], in test [7] and in test [8] was more than 100 µM in each case. In [9], the TGI was more than 100 µM.
